Laboratory results as given in patent US20080219977A1, “Combinations Comprising Gemcitabine and Tyrosine Kinase Inhibitors for the Treatment of Pancreatic Cancer” (priority 2005, published 2008).
Marks after values point to notes of the source that are not given here.

Experiments:
[1] = test system: L3.6pl human pancreatic cancer cells; assay: Therapy of established L3.6pl human pancreatic carcinoma tumors growing in the pancreas of athymic nude mice (tumor weight); assay type: in vivo; details: for effect on tumor growth (in words): L3.6pl implanted in the pancreas of nude mice, each drug 50 mg/kg; for Tumor weight (g) Median: pancreatic tumor, AEE788 50 mg/kg oral 3x/week, STI571 50 mg/kg oral daily, gemcitabine 50 mg/kg i.p. twice weekly, 4 weeks, killed day 49, n=10
From the text: Animals and Orthotopic Implantation of Tumor Cells. Male athymic nude mice (NCI-nu) are purchased from the Animal Production Area of the National Cancer Institute Frederick Cancer Research and Development Center (Frederick, Md.). The mice are housed and maintained under specific pathogen-free conditions. The mice are used when they are 8 to 12 weeks old. To produce pancreatic tumors, L3.6pl cells are harvested from subconfluent cultures by a brief exposure to 0.25% trypsin and 0.02% EDTA. Trypsinization is stopped with medium containing 10% FBS, and the cells are washed once in serum-free medium and resuspended in Hanks' balanced salt solution (HBSS). Only suspensions consisting of single cells with greater than 90% viability are used for injection into the pancreas of nude mice as described previously (Hwang et al. in Clin Cancer Res 2003; 9:6534-44). Treatment of Established Human Pancreatic Carcinoma Tumors Growing in the Pancreas of Athymic Nude Mice. Twenty-one days after the intra-pancreatic injection of 0.5×10^6 viable L3.6pl cells in 50 μl HBSS, the pancreatic tumors reach the size of 5-6-mm. […] All mice are treated for 4 weeks and killed on day 49 of the experiment. Necropsy Procedures and Histological Studies. […] Tumors growing in the pancreas are excised and weighed. For immunohistochemical staining procedures, one part of the tumor tissue is fixed in formalin and embedded in paraffin and the other is embedded in OCT compound (Miles, Inc., Elkhart, Ind.), rapidly frozen in liquid nitrogen, and stored at −70° C. Statistical Analysis. Body weight, tumor weight, PCNA-positive cells, mean vessel density (CD31/PECAM-1), and TUNEL-positive cells are compared using the Mann-Whitney U test. Survival analysis is computed by the Kaplan-Meier method and compared by the Log rank test.

[2] = test system: PDGFRβ; assay: IHC analysis of phosphorylated PDGFRβ in L3.6pl pancreatic tumors; assay type: in vivo, human; details: IHC of pancreatic tumors from treated mice
From the text: (§1) Immunohistochemical (IHC) Analysis to Detect EGF, VEGF, PDGF-BB, EGFR, VEGFR, PDGFRβ, pEGFR, pVEGFR, pPDGF-R in Pancreatic Tumors. Paraffin-embedded pancreatic tumors of mice from all treatment groups are immunostained to evaluate the expression of EGF, VEGF, PDGF-BB, EGFR, VEGFR, PDGFRβ, phosphorylated (p)EGFR, pVEGFR, and pPDGFRβ. The sections are deparaffinized in xylene, dehydrated with alcohol and rehydrated in PBS. Endogenous peroxidase is blocked with 3% hydrogen peroxide in PBS. Samples are exposed to protein block (5% normal horse serum, 1% normal goat serum in PBS) and incubated overnight at 4° C. with each primary antibody at the appropriate dilution. […] Slides are counterstained with Gill's #3 hematoxylin. Sections stained for immunoperoxidase or hematoxylin and eosin are examined in a microscope equipped with a three-chip-charged coupled device (CCD) color video camera. Digital images are captured using Optimas Image Analysis software (Media Cybernetics, Md.).

[3] = target: T1, PDGFRβ (Mus musculus, UniProt P05622); assay: Double immunofluorescence CD31/pPDGFRβ on tumor-associated endothelial cells; assay type: in vivo, nude mice; details: double immunofluorescence with CD31
T1 construct: Frozen sections of pancreatic tumors are mounted on slides and fixed; from tissue; host or cells: tumour-associated endothelial cells in L3.6pl tumours of nude mice
T1 sequence (P05622 32-1098): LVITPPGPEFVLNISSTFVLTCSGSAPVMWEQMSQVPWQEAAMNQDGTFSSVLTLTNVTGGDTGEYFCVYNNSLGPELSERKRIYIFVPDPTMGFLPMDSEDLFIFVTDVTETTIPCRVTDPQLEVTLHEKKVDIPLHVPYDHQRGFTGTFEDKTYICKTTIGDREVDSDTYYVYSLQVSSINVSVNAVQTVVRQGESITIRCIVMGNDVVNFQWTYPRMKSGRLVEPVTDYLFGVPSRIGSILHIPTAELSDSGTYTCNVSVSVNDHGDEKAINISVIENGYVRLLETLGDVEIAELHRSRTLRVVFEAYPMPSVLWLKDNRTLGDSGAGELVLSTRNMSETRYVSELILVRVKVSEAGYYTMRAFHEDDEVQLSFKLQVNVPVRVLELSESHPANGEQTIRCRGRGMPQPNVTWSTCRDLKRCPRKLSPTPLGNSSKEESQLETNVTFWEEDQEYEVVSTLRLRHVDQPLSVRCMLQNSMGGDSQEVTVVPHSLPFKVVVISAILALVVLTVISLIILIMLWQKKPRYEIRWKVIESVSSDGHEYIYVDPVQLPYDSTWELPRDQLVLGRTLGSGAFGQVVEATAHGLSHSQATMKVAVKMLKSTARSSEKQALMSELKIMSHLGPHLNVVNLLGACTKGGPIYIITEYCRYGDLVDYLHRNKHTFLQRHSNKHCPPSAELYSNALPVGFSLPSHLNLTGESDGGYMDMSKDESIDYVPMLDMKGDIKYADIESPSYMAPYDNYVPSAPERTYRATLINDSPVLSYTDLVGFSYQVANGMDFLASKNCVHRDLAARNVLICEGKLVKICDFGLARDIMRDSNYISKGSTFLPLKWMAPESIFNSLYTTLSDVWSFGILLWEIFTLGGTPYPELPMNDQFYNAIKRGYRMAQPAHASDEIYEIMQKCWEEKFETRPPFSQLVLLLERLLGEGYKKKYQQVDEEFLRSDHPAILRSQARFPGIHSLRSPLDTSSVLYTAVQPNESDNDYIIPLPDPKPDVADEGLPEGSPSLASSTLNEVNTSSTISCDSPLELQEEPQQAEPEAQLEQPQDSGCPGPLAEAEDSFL

[4] = test system: EGF, VEGF, PDGF-BB, EGFR, VEGFR, and PDGFR; assay: IHC expression level of growth factors and receptors in L3.6pl pancreatic tumors; assay type: in vivo, human; details: IHC of pancreatic tumors from treated mice
From the text: Immunohistochemical (IHC) Analysis to Detect EGF, VEGF, PDGF-BB, EGFR, VEGFR, PDGFRβ, pEGFR, pVEGFR, pPDGF-R in Pancreatic Tumors. Paraffin-embedded pancreatic tumors of mice from all treatment groups are immunostained to evaluate the expression of EGF, VEGF, PDGF-BB, EGFR, VEGFR, PDGFRβ, phosphorylated (p)EGFR, pVEGFR, and pPDGFRβ. The sections are deparaffinized in xylene, dehydrated with alcohol and rehydrated in PBS. Endogenous peroxidase is blocked with 3% hydrogen peroxide in PBS. Samples are exposed to protein block (5% normal horse serum, 1% normal goat serum in PBS) and incubated overnight at 4° C. with each primary antibody at the appropriate dilution. After 1 h incubation at room temperature with peroxidase-conjugated secondary antibody, positive reaction is detected by exposure to stable 3,3′-diaminobenzidine (DAB) (Phoenix Biotechnologies, Huntsville, Ala.). Slides are counterstained with Gill's #3 hematoxylin. Sections stained for immunoperoxidase or hematoxylin and eosin are examined in a microscope equipped with a three-chip-charged coupled device (CCD) color video camera. Digital images are captured using Optimas Image Analysis software (Media Cybernetics, Md.).

[5] = test system: L3.6pl human pancreatic cancer cells; assay: Apoptosis (TUNEL) in L3.6pl tumors; assay type: in vivo; details: Median ± S.D.; TUNEL-positive cells in 10 random 0.159-mm^2 fields at ×100
Protocol: Analysis of apoptotic cells is performed by using a commercially available TUNEL kit (Promega) with the following modifications: Samples are fixed and incubated with an equilibration buffer followed by a reaction buffer (containing nucleotide mix and terminal deoxynucleotidyl transferase enzyme). Immunofluorescence microscopy is performed in a Zeiss Axioplan microscope (Carl Zeiss, Inc., Thornwood, N.Y.) equipped with an HBO 100 mercury lamp, narrow bandpass filters to individually select for green, red, and blue fluorescence (Chroma Technology Corp., Brattleboro, Vt.). Images are captured using a cooled CCD Hamamatsu Orca camera (Hamamatsu Corp., Bridgewater, N.J.) and Image Pro Analysis software (Media Cybernetics, Silver Spring, Md.). Photomontages are prepared using Adobe Photoshop software (Adobe Systems, Inc., San Jose, Calif.). […] Statistical Analysis. Body weight, tumor weight, PCNA-positive cells, mean vessel density (CD31/PECAM-1), and TUNEL-positive cells are compared using the Mann-Whitney U test. Survival analysis is computed by the Kaplan-Meier method and compared by the Log rank test.

[6] = test system: tumor-associated endothelial cells; assay: CD31/TUNEL fluorescent double labeling, apoptosis of tumor-associated endothelial cells; assay type: in vivo, nude mice; details: Median ± S.D.; ratio of apoptotic endothelial cells to total endothelial cells
Protocol: Double Immunofluorescence Staining for CD31/PECAM-1 and EGFR, pEGFR, VEGFR, pVEGFR, PDGFRβ, pPDGFRβ, Pericytes (desmin-positive cells), and TUNEL. Frozen sections of pancreatic tumors are mounted on slides and fixed. Immunofluorescence for CD31 is performed using Alexa594 conjugated secondary antibody, and samples are again blocked briefly in a blocking solution (5% normal horse serum and 1% normal goat serum in PBS) as described above and incubated with antibody against human EGFR, pEGFR, VEGFR, pVEGFR, PDGFRβ, pPDGFRβ, or desmin at 4° C. overnight. After washes and blocking with blocking solution, samples are incubated with Alexa488 conjugated secondary antibody. Endothelial cells are identified by red fluorescence, and EGF-R, pEGFR, VEGFR, pVEGFR, PDGFRβ, pPDGFRβ and desmin positive cells (pericytes) are identified by green fluorescence. The presence of growth factor receptors and phosphorylated receptors on endothelial cells are detected by colocalization of red and green fluorescence, which appeared yellow. TUNEL-positive apoptotic cells are detected by localized green fluorescence within cell nuclei, and endothelial cells are identified by red fluorescence. Apoptotic endothelial cells are identified by yellow fluorescence within the nuclei.

[7] = test system: tumor-associated endothelial cells; assay: Pericyte (desmin) coverage on tumor-associated endothelial cells; assay type: in vivo, nude mice; details: desmin-positive cells in contact with CD31-positive cells
Protocol: Double Immunofluorescence Staining for CD31/PECAM-1 and EGFR, pEGFR, VEGFR, pVEGFR, PDGFRβ, pPDGFRβ, Pericytes (desmin-positive cells), and TUNEL. Frozen sections of pancreatic tumors are mounted on slides and fixed. Immunofluorescence for CD31 is performed using Alexa594 conjugated secondary antibody, and samples are again blocked briefly in a blocking solution (5% normal horse serum and 1% normal goat serum in PBS) as described above and incubated with antibody against human EGFR, pEGFR, VEGFR, pVEGFR, PDGFRβ, pPDGFRβ, or desmin at 4° C. overnight. After washes and blocking with blocking solution, samples are incubated with Alexa488 conjugated secondary antibody. Endothelial cells are identified by red fluorescence, and EGF-R, pEGFR, VEGFR, pVEGFR, PDGFRβ, pPDGFRβ and desmin positive cells (pericytes) are identified by green fluorescence. The presence of growth factor receptors and phosphorylated receptors on endothelial cells are detected by colocalization of red and green fluorescence, which appeared yellow. The coverage of pericytes on endothelial cells is determined by counting CD31 positive cells in direct contact with desmin-positive cells and CD31-positive cells without direct association with desmin-positive cells in five randomly selected microscopic fields.

[8] = Body weight of nude mice in the L3.6pl therapy study; assay type: in vivo; details: nude mice with orthotopic L3.6pl tumors; AEE788 50 mg/kg oral 3x/week, STI571 50 mg/kg oral daily, gemcitabine 50 mg/kg i.p. twice weekly; 4 weeks, killed day 49; n=10
Protocol: Treatment of Established Human Pancreatic Carcinoma Tumors Growing in the Pancreas of Athymic Nude Mice. Twenty-one days after the intra-pancreatic injection of 0.5×10^6 viable L3.6pl cells in 50 μl HBSS, the pancreatic tumors reach the size of 5-6-mm. […] All mice are treated for 4 weeks and killed on day 49 of the experiment.
Necropsy Procedures and Histological Studies. In the first treatment study, the mice are killed on day 49 after tumor cell injection, weighted, and necropsied. Tumors growing in the pancreas are excised and weighed. For immunohistochemical staining procedures, one part of the tumor tissue is fixed in formalin and embedded in paraffin and the other is embedded in OCT compound (Miles, Inc., Elkhart, Ind.), rapidly frozen in liquid nitrogen, and stored at −70° C.
Statistical Analysis. Body weight, tumor weight, PCNA-positive cells, mean vessel density (CD31/PECAM-1), and TUNEL-positive cells are compared using the Mann-Whitney U test. Survival analysis is computed by the Kaplan-Meier method and compared by the Log rank test.

[9] = test system: L3.6pl human pancreatic cancer cells; assay: Cell proliferation (PCNA) IHC in L3.6pl tumors; assay type: in vivo; details: Median ± S.D., positive cells in 10 random 0.159-mm^2 fields at ×100
Protocol: (§2) IHC Determination of Proliferating Cell Nuclear Antigen (PCNA), CD31/PECAM-1 (Endothelial Cells) and TUNEL (Apoptosis). Paraffin-embedded tissues are used for IHC identification of proliferating cell nuclear antigen (PCNA). Frozen tissues used for identification of CD31/PECAM-1 are sectioned (8-10 μm), mounted on positively charged slides, and air-dried for 30 min. Frozen sections are fixed in cold acetone (5 min), in acetone/chloroform (v/v; 5 min), and again in acetone (5 min), and washed with PBS. IHC procedures are performed as described previously (Hwang et al. in Clin Cancer Res 2003; 9:6534-44). […] Statistical Analysis. Body weight, tumor weight, PCNA-positive cells, mean vessel density (CD31/PECAM-1), and TUNEL-positive cells are compared using the Mann-Whitney U test. Survival analysis is computed by the Kaplan-Meier method and compared by the Log rank test.

[10] = test system: Endothelial cells; assay: Mean vessel density (CD31/PECAM-1) in L3.6pl tumors; assay type: in vivo, nude mice; details: Median ± S.D., microvessels in 10 random 0.159-mm^2 fields at ×100
Protocol: as §2, with “9:6534-44). Control samples exposed to a secondary antibody alone show no specific staining.” for “9:6534-44).”

[11] = target: T2, EGFR (Homo sapiens, UniProt P00533); assay: IHC analysis of phosphorylated EGFR in L3.6pl pancreatic tumors; assay type: in vivo; details: IHC of pancreatic tumors from treated mice
T2 construct: Paraffin-embedded pancreatic tumors of mice from all treatment groups are immunostained; from tissue; host or cells: L3.6pl orthotopic pancreatic tumours grown in nude mice
T2 sequence (P00533 25-1210): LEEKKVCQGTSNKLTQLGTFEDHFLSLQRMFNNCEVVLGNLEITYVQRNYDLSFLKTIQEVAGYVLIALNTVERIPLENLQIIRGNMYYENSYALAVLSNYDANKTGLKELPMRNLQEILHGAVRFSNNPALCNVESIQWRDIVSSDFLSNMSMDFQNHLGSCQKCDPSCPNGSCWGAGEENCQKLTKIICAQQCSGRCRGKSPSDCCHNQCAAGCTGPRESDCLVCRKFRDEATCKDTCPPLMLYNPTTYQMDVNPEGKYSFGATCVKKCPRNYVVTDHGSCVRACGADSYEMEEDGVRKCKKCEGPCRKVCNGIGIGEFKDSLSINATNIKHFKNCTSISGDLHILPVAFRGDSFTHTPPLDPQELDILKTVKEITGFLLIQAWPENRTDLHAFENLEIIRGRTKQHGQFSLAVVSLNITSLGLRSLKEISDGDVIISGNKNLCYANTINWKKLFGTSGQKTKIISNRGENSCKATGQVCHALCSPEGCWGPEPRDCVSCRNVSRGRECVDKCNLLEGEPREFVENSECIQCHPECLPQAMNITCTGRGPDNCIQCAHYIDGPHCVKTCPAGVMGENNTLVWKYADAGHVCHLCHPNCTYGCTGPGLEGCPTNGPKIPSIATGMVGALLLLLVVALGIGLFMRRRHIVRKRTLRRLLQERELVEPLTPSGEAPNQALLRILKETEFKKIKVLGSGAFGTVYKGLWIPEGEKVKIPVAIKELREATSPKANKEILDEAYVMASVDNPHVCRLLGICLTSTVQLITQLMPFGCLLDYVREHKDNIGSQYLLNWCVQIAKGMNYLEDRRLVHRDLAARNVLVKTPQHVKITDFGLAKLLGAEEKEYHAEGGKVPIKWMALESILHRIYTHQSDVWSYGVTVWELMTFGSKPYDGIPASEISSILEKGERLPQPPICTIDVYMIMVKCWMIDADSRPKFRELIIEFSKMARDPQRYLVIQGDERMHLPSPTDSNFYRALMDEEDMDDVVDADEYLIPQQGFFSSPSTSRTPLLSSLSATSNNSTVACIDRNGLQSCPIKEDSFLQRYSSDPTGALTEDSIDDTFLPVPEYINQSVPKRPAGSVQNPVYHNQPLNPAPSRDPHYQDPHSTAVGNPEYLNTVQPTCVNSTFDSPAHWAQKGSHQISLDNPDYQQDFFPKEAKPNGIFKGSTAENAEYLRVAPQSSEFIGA
From the text: as §1

[12] = test system: VEGFR; assay: IHC analysis of phosphorylated VEGFR in L3.6pl pancreatic tumors; assay type: in vivo, human; details: IHC of pancreatic tumors from treated mice
From the text: as §1

[13] = target: T3, EGFR (Mus musculus, UniProt Q01279); assay: Double immunofluorescence CD31/pEGFR on tumor-associated endothelial cells; assay type: in vivo, nude mice; details: double immunofluorescence with CD31
T3 construct: Frozen sections of pancreatic tumors are mounted on slides and fixed; from tissue; host or cells: tumour-associated endothelial cells in L3.6pl tumours of nude mice
T3 sequence (Q01279 25-1210): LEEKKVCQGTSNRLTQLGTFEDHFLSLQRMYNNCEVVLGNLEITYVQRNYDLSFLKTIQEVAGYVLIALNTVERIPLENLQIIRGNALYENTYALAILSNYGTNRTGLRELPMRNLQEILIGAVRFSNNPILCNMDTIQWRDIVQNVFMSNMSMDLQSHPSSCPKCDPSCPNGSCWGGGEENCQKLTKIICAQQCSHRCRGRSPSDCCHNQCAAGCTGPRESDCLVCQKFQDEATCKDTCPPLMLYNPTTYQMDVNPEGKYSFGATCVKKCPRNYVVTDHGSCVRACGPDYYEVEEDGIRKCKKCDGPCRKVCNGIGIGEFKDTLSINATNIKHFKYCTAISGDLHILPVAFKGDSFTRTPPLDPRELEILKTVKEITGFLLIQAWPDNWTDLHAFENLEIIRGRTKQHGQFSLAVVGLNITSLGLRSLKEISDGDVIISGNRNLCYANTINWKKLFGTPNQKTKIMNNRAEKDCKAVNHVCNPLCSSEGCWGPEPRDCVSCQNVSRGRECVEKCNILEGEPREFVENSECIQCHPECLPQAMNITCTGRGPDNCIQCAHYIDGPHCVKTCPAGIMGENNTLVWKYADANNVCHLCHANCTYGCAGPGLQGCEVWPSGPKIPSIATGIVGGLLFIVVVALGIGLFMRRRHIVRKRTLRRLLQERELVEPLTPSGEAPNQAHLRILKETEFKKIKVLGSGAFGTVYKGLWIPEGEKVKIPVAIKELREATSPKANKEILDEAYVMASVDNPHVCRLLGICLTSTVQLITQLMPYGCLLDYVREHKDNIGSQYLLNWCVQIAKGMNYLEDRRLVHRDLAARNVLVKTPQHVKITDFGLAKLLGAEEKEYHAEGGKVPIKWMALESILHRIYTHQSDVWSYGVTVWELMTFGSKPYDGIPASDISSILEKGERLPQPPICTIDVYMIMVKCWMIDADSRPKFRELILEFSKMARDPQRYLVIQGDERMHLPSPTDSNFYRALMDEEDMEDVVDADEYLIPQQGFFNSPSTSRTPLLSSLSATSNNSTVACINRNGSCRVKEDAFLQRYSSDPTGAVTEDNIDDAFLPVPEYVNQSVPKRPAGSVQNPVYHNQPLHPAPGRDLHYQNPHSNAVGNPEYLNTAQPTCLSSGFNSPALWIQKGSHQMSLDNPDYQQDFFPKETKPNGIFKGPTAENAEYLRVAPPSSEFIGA

[14] = target: T4, VEGFR (Mus musculus, UniProt P35918); assay: Double immunofluorescence CD31/pVEGFR on tumor-associated endothelial cells; assay type: in vivo, nude mice; details: double immunofluorescence with CD31
T4 construct: Frozen sections of pancreatic tumors are mounted on slides and fixed; from tissue; host or cells: tumour-associated endothelial cells in L3.6pl tumours of nude mice
T4 sequence (P35918 20-1345): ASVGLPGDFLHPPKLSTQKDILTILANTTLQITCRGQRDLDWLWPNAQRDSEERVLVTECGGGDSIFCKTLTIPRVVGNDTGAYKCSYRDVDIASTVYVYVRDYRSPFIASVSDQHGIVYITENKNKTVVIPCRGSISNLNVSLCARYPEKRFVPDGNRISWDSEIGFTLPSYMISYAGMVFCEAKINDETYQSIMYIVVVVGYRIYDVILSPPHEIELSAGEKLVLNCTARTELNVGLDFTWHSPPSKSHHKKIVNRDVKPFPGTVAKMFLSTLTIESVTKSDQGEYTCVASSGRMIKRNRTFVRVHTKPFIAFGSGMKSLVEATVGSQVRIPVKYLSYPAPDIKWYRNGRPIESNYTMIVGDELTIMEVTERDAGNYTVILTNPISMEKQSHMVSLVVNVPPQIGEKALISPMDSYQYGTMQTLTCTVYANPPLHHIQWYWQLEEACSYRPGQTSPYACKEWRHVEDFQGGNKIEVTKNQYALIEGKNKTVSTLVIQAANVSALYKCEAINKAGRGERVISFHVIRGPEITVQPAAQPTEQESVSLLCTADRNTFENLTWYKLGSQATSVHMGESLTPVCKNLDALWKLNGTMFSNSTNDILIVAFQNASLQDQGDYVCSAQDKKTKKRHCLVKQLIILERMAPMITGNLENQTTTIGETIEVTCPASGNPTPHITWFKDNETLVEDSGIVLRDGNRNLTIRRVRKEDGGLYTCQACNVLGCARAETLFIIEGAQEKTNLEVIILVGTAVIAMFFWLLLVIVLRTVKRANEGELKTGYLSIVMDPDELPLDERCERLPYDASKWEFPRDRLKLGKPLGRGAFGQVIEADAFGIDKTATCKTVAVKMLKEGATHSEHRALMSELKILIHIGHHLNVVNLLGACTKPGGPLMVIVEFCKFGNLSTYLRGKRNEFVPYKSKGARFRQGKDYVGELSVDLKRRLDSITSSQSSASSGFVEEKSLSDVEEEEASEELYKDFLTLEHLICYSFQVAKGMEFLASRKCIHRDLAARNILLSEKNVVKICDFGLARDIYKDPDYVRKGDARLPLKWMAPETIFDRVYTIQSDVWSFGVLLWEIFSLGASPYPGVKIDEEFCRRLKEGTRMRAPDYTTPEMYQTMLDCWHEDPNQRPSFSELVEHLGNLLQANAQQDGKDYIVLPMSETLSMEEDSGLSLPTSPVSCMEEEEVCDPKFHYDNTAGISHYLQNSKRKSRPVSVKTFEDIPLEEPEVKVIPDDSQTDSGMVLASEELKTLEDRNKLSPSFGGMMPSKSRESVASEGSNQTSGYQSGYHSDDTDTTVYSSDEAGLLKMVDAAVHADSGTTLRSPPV

[15] = listed as {6-[4-(4-ethyl-piperazin-1-ylmethyl)-phenyl]-7H-pyrrolo[2,3-d]pyrimidin-4-yl}-(1)

phosphorylation of PDGFRβ on tumor-associated endothelial cells [3]	phosphorylation of EGFR in tumors [11]	phosphorylation of EGFR in tumors [11, 15]	phosphorylation of EGFR on tumor-associated endothelial cells [13]	phosphorylation of VEGFR on tumor-associated endothelial cells [14]	SMILES	effect on tumor growth (in words) [1]	Tumor weight (g) Median [1] [g]	phosphorylation of PDGFRβ in tumors [2]	expression level of EGF, VEGF, PDGF-BB, EGFR, VEGFR, and PDGFR by the tumor cells or in the stroma cells [4]	Tumor cells TUNEL (number of apoptotic tumor cells) [5]	Endothelial cells TUNEL+ (%) [6]	pericyte coverage on tumor-associated endothelial cells [7]	Body weight(g) Median [8] [g]	Tumor cells PCNA (number of PCNA-positive cells) [9]	Tumor cells PCNA (number of PCNA-positive cells) ([9]; listed as gemcitabine)	Endothelial cells CD31 (mean vessel density) [10]	Endothelial cells CD31 (mean vessel density) ([10]; listed as gemcitabine)	phosphorylation of VEGFR in tumors [12]	phosphorylation of VEGFR in tumors [12, 15]
decreased	–	–	–	–	Cc1ccc(NC(=O)c2ccc(CN3CCN(C)CC3)cc2)cc1Nc1nccc(-c2cccnc2)n1 [STI571, N-{5-[4-(4-methyl-piperazino-methyl)-benzoylamido]-2-methylphenyl}-4-(3-pyridyl)-2-pyrimidine-amine]	does not inhibit tumor growth	0.96	inhibited	do not alter the expression level	6 ± 2	0 ± 0%	decreases pericyte coverage	–	–	–	–	–	–	–
–	–	–	–	–	Nc1ccn([C@@H]2O[C@H](CO)[C@@H](O)C2(F)F)c(=O)n1 [Gemcitabine]	does not inhibit tumor growth	0.78	–	do not alter the expression level	8 ± 3^f	1 ± 1%	–	25.7	305 ± 71	decreases the number of dividing PCNA-positive cells	38 ± 7	does not decrease MVD	–	–
–	significantly reduced	decreases phosphorylation	diminished	diminished	CCN1CCN(Cc2ccc(-c3cc4c(N[C@H](C)c5ccccc5)ncnc4[nH]3)cc2)CC1 [AEE788]	–	0.33	–	do not alter the expression level	14 ± 4^f	3 ± 3^e %	–	26.2	233 ± 54^e	–	25 ± 5^d	–	significantly reduced	decreases phosphorylation
